What all share (assay type): biochemical
One experiment addresses PDE1B (Homo sapiens, UniProt Q01064). The experiment in a line: PDE1 inhibition assay (SPA), PDE1B. The conditions noted are these: for IC50: concentration required to reach 50% inhibition of the enzyme, 15 nM tritium labelled cAMP, read-out: PDE1B inhibition (nM or %): IC50; for inhibition at 10 µM: 1 h, % inhibition of the enzyme at a concentration of 10 micro molar of the compound, read-out: PDE1B inhibition (nM or %): % inhib. The protocol: (§1) PDE1 Inhibition Assay PDE1A, PDE1B and PDE1C assays were performed as follows: the assays were performed in 60 μL samples containing a fixed amount of the PDE1 enzym1 (sufficient to convert 20-25% of the cyclic nucleotide substrate), a buffer (50 mM HEPES pH 7.6; 10 mM MgCl2; 0.02% Tween20), 0.1 mg/ml BSA, 15 nM tritium labelled cAMP and varying amounts of inhibitors. Reactions were initiated by addition of the cyclic nucleotide substrate, and reactions were allowed to proceed for 1 h at room temperature before being terminated through mixing with 20 μL (0.2 mg) yttrium silicate SPA beads (PerkinElmer). The beads were allowed to settle for 1 h in the dark before the plates were counted in a Wallac 1450 Microbeta counter. The measured signals were converted to activity relative to an uninhibited control (100%) and IC50 values were calculated using XIFit (model 205, IDBS).

The next experiment deals with PDE1C (Homo sapiens, UniProt Q14123). The experiment in a line: PDE1 inhibition assay (SPA), PDE1C. The conditions noted are these: for IC50: concentration required to reach 50% inhibition of the enzyme, 15 nM tritium labelled cAMP, read-out: PDE1C inhibition (nM or %): IC50. The protocol:
as §1

For a further experiment, the target named is PDE1A (Homo sapiens, UniProt P54750). The experiment in a line: PDE1 inhibition assay (SPA), PDE1A. To be noted: for IC50: concentration required to reach 50% inhibition of the enzyme, 15 nM tritium labelled cAMP, read-out: PDE1A inhibition (nM or %): IC50; for inhibition at 10 µM: 1 h, read-out: PDE1A inhibition (nM or %): % inhib. The protocol:
as §1

The mark [1] stands for this setting: % inhibition of the enzyme at a concentration of 10 micro molar of the compound.

The record followed here is patent US10150771B2, “Triazolopyrazinones as PDE1 inhibitors” (H. Lundbeck A/S, priority 2014, dated 2018).

Sequence of PDE1C (Q14123 whole entry): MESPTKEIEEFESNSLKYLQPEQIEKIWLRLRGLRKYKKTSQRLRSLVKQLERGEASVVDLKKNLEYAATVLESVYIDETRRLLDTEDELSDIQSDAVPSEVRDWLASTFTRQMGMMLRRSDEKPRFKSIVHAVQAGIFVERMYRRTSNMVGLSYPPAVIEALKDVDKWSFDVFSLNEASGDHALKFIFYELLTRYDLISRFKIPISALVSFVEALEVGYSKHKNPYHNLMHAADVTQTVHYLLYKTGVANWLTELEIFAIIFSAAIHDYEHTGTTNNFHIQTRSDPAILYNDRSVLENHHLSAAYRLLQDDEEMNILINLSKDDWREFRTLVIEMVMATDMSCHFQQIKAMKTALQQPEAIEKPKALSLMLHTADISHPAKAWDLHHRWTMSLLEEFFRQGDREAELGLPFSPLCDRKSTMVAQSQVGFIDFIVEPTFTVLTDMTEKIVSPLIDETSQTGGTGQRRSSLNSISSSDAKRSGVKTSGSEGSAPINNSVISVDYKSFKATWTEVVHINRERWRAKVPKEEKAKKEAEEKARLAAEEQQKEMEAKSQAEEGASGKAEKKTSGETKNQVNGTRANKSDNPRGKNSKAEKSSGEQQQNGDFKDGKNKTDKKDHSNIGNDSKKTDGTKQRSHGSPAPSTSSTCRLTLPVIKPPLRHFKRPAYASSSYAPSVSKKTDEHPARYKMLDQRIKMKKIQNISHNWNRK
Sequence of PDE1B (Q01064 whole entry): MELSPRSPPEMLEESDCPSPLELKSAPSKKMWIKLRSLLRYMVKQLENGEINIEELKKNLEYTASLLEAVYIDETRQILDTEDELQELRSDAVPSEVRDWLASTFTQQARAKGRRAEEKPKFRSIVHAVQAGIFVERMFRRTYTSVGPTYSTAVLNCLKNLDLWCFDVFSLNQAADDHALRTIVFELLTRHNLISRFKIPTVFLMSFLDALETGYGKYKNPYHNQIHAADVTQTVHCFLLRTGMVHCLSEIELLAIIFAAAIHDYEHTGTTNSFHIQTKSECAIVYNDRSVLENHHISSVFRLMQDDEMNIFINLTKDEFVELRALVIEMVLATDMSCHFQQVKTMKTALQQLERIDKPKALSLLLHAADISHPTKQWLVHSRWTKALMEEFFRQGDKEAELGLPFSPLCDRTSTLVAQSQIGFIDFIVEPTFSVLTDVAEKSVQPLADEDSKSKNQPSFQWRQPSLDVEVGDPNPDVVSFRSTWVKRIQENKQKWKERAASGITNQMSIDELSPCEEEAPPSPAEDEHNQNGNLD
Sequence of PDE1A (P54750 whole entry): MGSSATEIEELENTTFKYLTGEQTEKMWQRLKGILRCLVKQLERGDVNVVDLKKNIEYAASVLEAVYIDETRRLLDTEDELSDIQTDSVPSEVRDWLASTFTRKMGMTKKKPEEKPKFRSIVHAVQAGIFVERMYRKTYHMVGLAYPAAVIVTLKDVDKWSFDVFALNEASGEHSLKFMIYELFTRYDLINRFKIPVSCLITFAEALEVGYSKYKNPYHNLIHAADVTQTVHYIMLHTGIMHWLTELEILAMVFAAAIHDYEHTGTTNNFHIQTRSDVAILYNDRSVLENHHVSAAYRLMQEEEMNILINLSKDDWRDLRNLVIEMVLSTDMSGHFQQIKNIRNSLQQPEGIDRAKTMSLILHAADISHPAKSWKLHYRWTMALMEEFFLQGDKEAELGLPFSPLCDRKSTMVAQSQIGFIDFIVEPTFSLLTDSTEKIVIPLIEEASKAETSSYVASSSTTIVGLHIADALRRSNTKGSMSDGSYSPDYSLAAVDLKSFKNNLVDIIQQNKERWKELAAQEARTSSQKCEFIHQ

For orientation: IC50 means the concentration that gives 50% inhibition. Take `CCCc1nnc2c(=O)n(CC3CCCCC3C)ccn12` (mixture of isomers) [7-((2-methylcyclohexyl)methyl)-3-propyl-[1,2,4]triazolo[4,3-a]pyrazin-8(7H)-one]: the results for the half-maximal inhibitory concentration (IC50) at PDE1B, at PDE1C and on PDE1A were 260 nM, 240 nM and 320 nM, respectively.

In the case of `CCCc1nnc2c(=O)n(CC3CCCC(C)C3)ccn12` (mixture of isomers) [7-((3-methylcyclohexyl)methyl)-3-propyl-[1,2,4]triazolo[4,3-a]pyrazin-8(7H)-one], the IC50 amounted to 230 nM at PDE1B, 83 nM at PDE1C and 320 nM on PDE1A.

Consider `CCCc1nnc2c(=O)n(CC3CCC(F)CC3)ccn12` (mixture of isomers) [7-((4-fluorocyclohexyl)methyl)-3-propyl-[1,2,4]triazolo[4,3-a]pyrazin-8(7H)-one], for which the IC50 on PDE1B stood at 560 nM; at PDE1C it was 610 nM; at PDE1A, 660 nM.

With `CCCc1nnc2c(=O)n(CC3CCC(C)CC3)ccn12` (racemic) [7-((4-methylcyclohexyl)methyl)-3-propyl-[1,2,4]triazolo[4,3-a]pyrazin-8(7H)-one], the values for the IC50 on PDE1B, at PDE1C and at PDE1A were 53 nM, 65 nM and 83 nM, respectively.

In the case of `CCCc1nnc2c(=O)n(Cc3cccc(F)c3)cc([C@H]3CCOC3)n12` (single isomer, unassigned), the IC50 was 2300 nM on PDE1B, 260 nM on PDE1C and 1610 nM on PDE1A.

For the molecule `CCCc1nnc2c(=O)n(Cc3cccc(F)c3)c([C@H]3CCOC3)cn12` (single isomer, unassigned), the IC50 came to 1800 nM on PDE1B, 290 nM at PDE1C and 2980 nM at PDE1A.

For the molecule `CCCc1nnc2c(=O)n(Cc3cccc(F)c3)cc([C@@H]3CCOC3)n12` (single isomer, unassigned), the half-inhibitory concentration (IC50) at PDE1B worked out at 1000 nM; at PDE1C, 260 nM; at PDE1A, 1780 nM.

For the molecule `CCCc1nnc2c(=O)n(Cc3cccc(F)c3)c([C@@H]3CCOC3)cn12` (single isomer, unassigned), the concentration for half-maximal inhibition (IC50) is 1100 nM at PDE1B, 270 nM on PDE1C and 1100 nM on PDE1A.

As usually defined, the inhibition is the drop in the measured response relative to a control, in per cent. Turning to `CCCc1nnc2c(=O)n(CC3CCOC3)ccn12` (single isomer, unassigned) [3-Propyl-7-((tetrahydrofuran-3-yl)methyl)-[1,2,4]triazolo[4,3-a]pyrazin-8(7H)-one], on PDE1B, the inhibition at 10 µM turned out to be 67% and the IC50 is 4000 nM.

As for `O=c1c2nnc(CC3CCCO3)n2ccn1Cc1cccc(F)c1` (single isomer, unassigned) [7-(3-Fluorobenzyl)-3-((tetrahydrofuran-2-yl)methyl)-[1,2,4]t] [7-(3-Fluorobenzyl)-3-((tetrahydrofuran-2-yl)methyl)-[1,2,4]triazolo[4,3-a]pyrazin-8(7H)-one], the “PDE1A inhibition (nM or %): % inhib” value on PDE1A (setting [1]) came out at 49%.

Consider `O=c1c2nnc(CC3CCCO3)n2ccn1Cc1cccc(F)c1` (single isomer, unassigned) [7-(3-Fluorobenzyl)-3-((tetrahydrofuran-2-yl)methyl)-[1,2,4]triazolo[4,3-a]pyrazin-8(7H)-one], for which, on PDE1B, the inhibition at 10 µM stood at 67% and the IC50 stood at 3700 nM. The inhibition at 10 µM on PDE1A (setting [1]) is 67%.

As for `O=c1c2nnc(C3CCCCO3)n2ccn1Cc1cccc(F)c1` (single isomer, unassigned) [7-(3-Fluorobenzyl)-3-(tetrahydro-2H-pyran-2-yl)-[1,2,4]triaz] [7-(3-Fluorobenzyl)-3-(tetrahydro-2H-pyran-2-yl)-[1,2,4]triazolo[4,3-a]pyrazin-8(7H)-one], on PDE1A, the IC50 came out at 3200 nM.

Regarding `O=c1c2nnc(C3CCCCO3)n2ccn1Cc1cccc(F)c1` (single isomer, unassigned) [7-(3-Fluorobenzyl)-3-(tetrahydro-2H-pyran-2-yl)-[1,2,4]triazolo[4,3-a]pyrazin-8(7H)-one], at PDE1A, the IC50 amounted to 3200 nM.

Take `O=c1c2nnc(C3CCCOC3)n2ccn1Cc1cccc(F)c1` (single isomer, unassigned) [7-(3-Fluorobenzyl)-3-(tetrahydro-2H-pyran-3-yl)-[1,2,4]triaz] [7-(3-Fluorobenzyl)-3-(tetrahydro-2H-pyran-3-yl)-[1,2,4]triazolo[4,3-a]pyrazin-8(7H)-one]: the 50% inhibitory concentration (IC50) on PDE1A stood at 1800 nM.

With `O=c1c2nnc(C3CCCOC3)n2ccn1Cc1cccc(F)c1` (single isomer, unassigned) [7-(3-Fluorobenzyl)-3-(tetrahydro-2H-pyran-3-yl)-[1,2,4]triazolo[4,3-a]pyrazin-8(7H)-one], the half-maximal inhibitory concentration (IC50) at PDE1A was determined as 1800 nM.

Turning to `O=c1c2nnc(C3CCOC3)n2ccn1Cc1cccc(F)c1` (single isomer, unassigned) [7-(3-Fluorobenzyl)-3-(tetrahydrofuran-3-yl)-[1,2,4]triazolo[4,3-a]pyrazin-8(7H)-one], the IC50 on PDE1C turned out to be 240 nM.

Consider `O=c1c2nnc(C3CCOC3)n2ccn1Cc1cccc(F)c1` (single isomer, unassigned) [7-(3-Fluorobenzyl)-3-(tetrahydrofuran-3-yl)-[1,2,4]triazolo[] [7-(3-Fluorobenzyl)-3-(tetrahydrofuran-3-yl)-[1,2,4]triazolo[4,3-a]pyrazin-8(7H)-one], for which the concentration for half-maximal inhibition (IC50) on PDE1C was 240 nM.

Take `CCCc1nnc2c(=O)n(CC3CCC(C)CC3)ccn12` (single isomer, unassigned) [7-(((1 r,4r)-4-methylcyclohexyl)methyl)-3-propyl-[1,2,4]triazolo[4,3-a]pyrazin-8(7H)-one]: the concentration for half-maximal inhibition (IC50) at PDE1B is 40 nM; at PDE1C, 120 nM; on PDE1A, 79 nM.

As for `CCCc1nnc2c(=O)n(CC3CCC(C)CC3)ccn12` (single isomer, unassigned) [7-(((1s,4s)-4-methylcyclohexyl)methyl)-3-propyl-[1,2,4]triazolo[4,3-a]pyrazin-8(7H)-one], the IC50 is 24 nM at PDE1B, 36 nM on PDE1C and 111 nM on PDE1A.

Regarding `CC(F)(F)c1nnc2c(=O)n(Cc3cccc(F)c3)ccn12` [3-(1,1-Difluoroethyl)-7-(3-fluorobenzyl)-[1,2,4]triazolo[4,3-a]pyrazin-8(7H)-one], the IC50 was 2700 nM on PDE1B, 550 nM on PDE1C and 2500 nM at PDE1A.

In the case of `O=c1c2nnc(C3CCCCC3)n2ccn1Cc1cccc(F)c1` [3-Cyclohexyl-7-(3-fluorobenzyl)-[1,2,4]triazolo[4,3-a]pyrazin-8(7H)-one], the IC50 turned out to be 590 nM on PDE1B, 120 nM at PDE1C and 810 nM on PDE1A.

Consider `O=c1c2nnc(C3CCCC3)n2ccn1Cc1cccc(F)c1` [3-Cyclopentyl-7-(3-fluorobenzyl)-[1,2,4]triazolo[4,3-a]pyrazin-8(7H)-one], for which the IC50 is 290 nM at PDE1B, 800 nM on PDE1C and 420 nM at PDE1A.

Consider `O=c1c2nnc(C3CC3)n2ccn1Cc1cccc(F)c1` [3-Cyclopropyl-7-(3-fluorobenzyl)-[1,2,4]triazolo[4,3-a]pyrazin-8(7H)-one], for which the IC50 was 780 nM at PDE1B, 210 nM at PDE1C and 500 nM at PDE1A.

Regarding `CCCc1nnc2c(=O)n(Cc3ccccc3C(F)(F)F)ccn12` [3-Propyl-7-(2-(trifluoromethyl)benzyl)-[1,2,4]triazolo[4,3-a]pyrazin-8(7H)-one], the inhibition at 10 µM is 46% at PDE1B and 44% at PDE1A (setting [1]). The “PDE1C inhibition (nM or %): % inhib” value on PDE1C (setting [1]) came to 41%.

Regarding `CCCc1nnc2c(=O)n(Cc3ccc(C(F)(F)F)cc3)ccn12` [3-Propyl-7-(4-(trifluoromethyl)benzyl)-[1,2,4]triazolo[4,3-a]pyrazin-8(7H)-one], the IC50 at PDE1B amounted to 570 nM; on PDE1C it was 2100 nM; on PDE1A, 1200 nM.

`CCCc1nnc2c(=O)n(CC3CCOCC3)ccn12` [3-Propyl-7-((tetrahydro-2H-pyran-4-yl)methyl)-[1,2,4]triazolo[4,3-a]pyrazin-8(7H)-one]: the inhibition at 10 µM at PDE1B worked out at 47%; on PDE1A (setting [1]) it was 42%. On PDE1C, the IC50 worked out at 1600 nM.

As to `CCCc1nnc2c(=O)n(CC3CCC4(CC3)CC4)ccn12` [3-propyl-7-(spiro[2.5]octan-6-ylmethyl)-[1,2,4]triazolo[4,3-a]pyrazin-8(7H)-one], the IC50 at PDE1B was found to be 53 nM; on PDE1C, 92 nM; at PDE1A it was 86 nM.

For the molecule `CCCc1nnc2c(=O)n(Cc3cccc(F)c3)cc(Br)n12` [5-bromo-7-(3-fluorobenzyl)-3-propyl-[1,2,4]triazolo[4,3-a]pyrazin-8(7H)-one], the values for the IC50 on PDE1B, at PDE1C and on PDE1A were 180 nM, 72 nM and 149 nM, respectively.

Regarding `CCCc1nnc2c(=O)n(Cc3cccc(F)c3)cc(CC)n12` [5-ethyl-7-(3-fluorobenzyl)-3-propyl-[1,2,4]triazolo[4,3-a]pyrazin-8(7H)-one], the 50% inhibitory concentration (IC50) at PDE1B turned out to be 510 nM; on PDE1C it was 180 nM; on PDE1A, 858 nM.
